The values that follow are results of earlier work, collected in patent US12551470B2, “Metabolism enhancing compositions” (Red Mountain Med Spa, LLC, priority 2022, dated 2026).

The conditions of series [1]: compared to the other phytochemicals (11 phytochemicals, Tomer et al., J. Med. Food 2007).
For series [2] the following is noted: compared to the other phytochemicals (11 phytochemicals, Tomer et al., J. Med. Food 2007). The source holds these as a separate data set.

In the case of `O=C(O)CCCC[C@@H]1CCSS1` [α-lipoic acid, (R)-5-(1,2-dithiolan-3-yl)pentanoic acid], the ORAC values entry in series [1] is given as “low”. The TOSC values result in series [2] is given as “high”.
